Assay results taken from patent publication US9573930B2 (Quanticel Pharmaceuticals, Inc., priority 2014, dated 2017).

target: full-length human LSD1 (Homo sapiens (Human), UniProt O60341); test: In vitro enzyme inhibition assay LSD-1 (TR-FRET); type: biochemical; conditions: H3K4me1-biotin peptide
Method: This assay determines the ability of a test compound to inhibit LSD1 demethylase activity.
The enzymatic assay of LSD1 activity is based on Time Resolved-Fluorescence Resonance Energy Transfer (TR-FRET) detection.
The ability of the compounds disclosed herein to inhibit LSD1 activity was quantified and the respective IC50 value was determined.

| IC50 [nM] | SMILES |
| --- | --- |
| < 100 | COc1ccc(-c2c(-c3ccc(C#N)c(F)c3)nc(N(C)C[C@@H]3CCNC3)n(C)c2=O)cc1 (stereo in doubt) [Example 56, 2-fluoro-4-[5-(4-methoxy-phenyl)-1-methyl-2-(methyl-pyrrolidin-3-ylmethyl-amino)-6-oxo-1,6-dihydro-pyrimidin-4-yl]-benzonitrile] |
| < 100 | COc1ccc(-c2c(-c3ccc(C#N)c(F)c3)nc(N3CCC(N)CC3)n(C)c2=O)cc1 [Example 6, 4-[2-(4-amino-piperidin-1-yl)-5-(4-methoxy-phenyl)-1-methyl-6-oxo-1,6-dihydro-pyrimidin-4-yl]-2-fluoro-benzonitrile] |
| < 100 | Cc1ccc(-c2c(-c3ccc(C#N)c(F)c3)nc(N3CCC(N)CC3)n(C)c2=O)cn1 [Example 9] |
| < 100 | CNC1CCN(c2nc(-c3ccc(C#N)c(F)c3)c(-c3ccc(OC)c(F)c3)c(=O)n2C)CC1 [Example 12, 2-fluoro-4-[5-(3-fluoro-4-methoxy-phenyl)-1-methyl-2-(4-methylamino-piperidin-1-yl)-6-oxo-1,6-dihydro-pyrimidin-4-yl]-benzonitrile] |
| < 100 | COc1ccc(-c2c(-c3ccc(C#N)c(F)c3)nc(N3CCC(N)CC3)n(CC(=O)O)c2=O)cc1 [Example 15, [2-(4-amino-piperidin-1-yl)-4-(4-cyano-3-fluoro-phenyl)-5-(4-methoxy-phenyl)-6-oxo-6H-pyrimidin-1-yl]-acetic acid] |
| < 100 | Cn1c(N2CCC(N)CC2)nc(-c2ccc(C#N)c(F)c2)c(-c2ccc3occc3c2)c1=O [Example 18, 4-[2-(4-amino-piperidin-1-yl)-5-benzofuran-5-yl-1-methyl-6-oxo-1,6-dihydro-pyrimidin-4-yl]-2-fluoro-benzonitrile] |
| < 100 | Cn1c(N2CCC(N)CC2)nc(-c2ccc(C#N)c(F)c2)c(C#N)c1=O [Example 19, 2-(4-amino-piperidin-1-yl)-4-(4-cyano-3-fluoro-phenyl)-1-methyl-6-oxo-1,6-dihydro-pyrimidine-5-carbonitrile] |
| < 100 | COc1ccc(-c2c(-c3ccc(C#N)c(F)c3)nc(N3CCC[C@H](N)C3)n(C)c2=O)cc1F [Example 28, 4-[2-((3S)-3-amino-piperidin-1-yl)-5-(3-fluoro-4-methoxy-phenyl)-1-methyl-6-oxo-1,6-dihydro-pyrimidin-4-yl]-2-fluoro-benzonitrile] |
| < 100 | COc1ccc(-c2c(-c3ccc(C#N)c(F)c3)nc(N3CCC[C@@H](N)C3)n(C)c2=O)cc1 [Example 30, 4-[2-((3R)-3-aminopiperidyl)-5-(4-methoxyphenyl)-1-methyl-6-oxohydropyrimidin-4-yl]-2-fluorobenzenecarbonitrile] |
| < 100 | COc1ccc(-c2c(-c3ccc(C#N)c(F)c3)nc(N3CCC[C@H](N)C3)n(C)c2=O)cc1 [Example 31, 4-[2-((3S)-3-amino-piperidin-1-yl)-5-(4-methoxy-phenyl)-1-methyl-6-oxo-1,6-dihydro-pyrimidin-4-yl]-2-fluoro-benzonitrile] |
| < 100 | Cn1c(N2CCC(N)CC2)nc(-c2ccc(C#N)c(F)c2)c(-c2cnn(CC(F)(F)F)c2)c1=O [Example 34, 4-{2-(4-amino-piperidin-1-yl)-1-methyl-6-oxo-5-[1-(2,2,2-trifluoro-ethyl)-1H-pyrazol-4-yl]-1,6-dihydro-pyrimidin-4-yl}-2-fluoro-benzonitrile] |

Second part, the compound before the results:

| SMILES | IC50 [nM] |
| --- | --- |
| COc1ccc(-c2c(-c3ccc(C#N)cc3)nc(N3CCC(N)CC3)n(C)c2=O)cn1 [Example 3, 4-[2-(4-amino-piperidin-1-yl)-5-(6-methoxy-pyridin-3-yl)-1-methyl-6-oxo-1,6-dihydro-pyrimidin-4-yl]-benzonitrile] | < 100 |
| Cc1ccc(-c2c(-c3ccc(C#N)cc3)nc(N3CCC(N)CC3)n(C)c2=O)cn1 [Example 4, 4-[2-(4-amino-piperidin-1-yl)-1-methyl-5-(6-methyl-pyridin-3-yl)-6-oxo-1,6-dihydro-pyrimidin-4-yl]-benzonitrile] | < 100 |
| COc1ccc(-c2c(-c3ccc(C#N)c(F)c3)nc(N3CCC(N)CC3)n(C)c2=O)cn1 [Example 8, 4-[2-(4-amino-piperidin-1-yl)-5-(6-methoxy-pyridin-3-yl)-1-methyl-6-oxo-1,6-dihydro-pyrimidin-4-yl]-2-fluoro-benzonitrile] | < 100 |
| CCc1ccc(-c2c(-c3ccc(C#N)cc3)nc(N3CCC(N)CC3)n(C)c2=O)cn1 [Example 10, 4-[2-(4-amino-piperidin-1-yl)-5-(6-ethyl-pyridin-3-yl)-1-methyl-6-oxo-1,6-dihydro-pyrimidin-4-yl]-benzonitrile] | < 100 |
| CNC1CCN(c2nc(-c3ccc(C#N)c(F)c3)c(-c3ccc(OC)cc3)c(=O)n2C)CC1 [Example 11, 2-fluoro-4-[5-(4-methoxy-phenyl)-1-methyl-2-(4-methylamino-piperidin-1-yl)-6-oxo-1,6-dihydro-pyrimidin-4-yl]-benzonitrile] | < 100 |
| CCn1c(N2CCC(N)CC2)nc(-c2ccc(C#N)c(F)c2)cc1=O [Example 13, 4-[2-(4-amino-piperidin-1-yl)-1-ethyl-6-oxo-1,6-dihydro-pyrimidin-4-yl]-2-fluoro-benzonitrile] | 100 to 1000 |
| Cn1c(N2CCC(N)CC2)nc(-c2ccc(C#N)c(F)c2)c(C#CC2CCCC2)c1=O [Example 14, 4-[2-(4-amino-piperidin-1-yl)-5-cyclopentylethynyl-1-methyl-6-oxo-1,6-dihydro-pyrimidin-4-yl]-2-fluoro-benzonitrile] | < 100 |
| COc1ccc(-c2c(-c3ccc(C#N)c(F)c3)nc(N3CCC(N)CC3)n(CC(N)=O)c2=O)cc1 [Example 16, 2-[2-(4-amino-piperidin-1-yl)-4-(4-cyano-3-fluoro-phenyl)-5-(4-methoxy-phenyl)-6-oxo-6H-pyrimidin-1-yl]-acetamide] | < 100 |
| N#Cc1ccc(-c2cc(=O)n(CCCO)c(N3CCC(N)CC3)n2)cc1F [Example 17, 4-[2-(4-amino-piperidin-1-yl)-1-(3-hydroxy-propyl)-6-oxo-1,6-dihydro-pyrimidin-4-yl]-2-fluoro-benzonitrile] | 100 to 1000 |
| CNC1CCN(c2nc(-c3ccc(C#N)c(F)c3)c(-c3ccc(C)nc3)c(=O)n2C)CC1 [Example 21, 2-fluoro-4-[1-methyl-2-(4-methylamino-piperidin-1-yl)-5-(6-methyl-pyridin-3-yl)-6-oxo-1,6-dihydro-pyrimidin-4-yl]-benzonitrile] | < 100 |
| COc1ccc(-c2c(-c3ccc(C#N)c(F)c3)nc(N3CCC4(CCNC4)CC3)n(C)c2=O)cc1F [Example 22, 4-[2-(2,8-diaza-spiro[4.5]dec-8-yl)-5-(3-fluoro-4-methoxy-phenyl)-1-methyl-6-oxo-1,6-dihydro-pyrimidin-4-yl]-2-fluoro-benzonitrile] | < 100 |
| COc1ccc(-c2c(-c3ccc(C#N)c(F)c3)nc(N3CCC[C@@H](N)C3)n(C)c2=O)cc1F [Example 25, 4-[2-((3R)-3-aminopiperidyl)-5-(3-fluoro-4-methoxyphenyl)-1-methyl-6-oxohydropyrimidin-4-yl]-2-fluorobenzenecarbonitrile] | < 100 |
| COc1ncc(-c2c(-c3ccc(C#N)c(F)c3)nc(N3CCC(N)CC3)n(C)c2=O)cc1F [Example 26, 4-[2-(4-aminopiperidyl)-5-(5-fluoro-6-methoxy(3-5,6-dihydropyridyl))-1-methyl-6-oxohydropyrimidin-4-yl]-2-fluorobenzenecarbonitrile] | < 100 |
| COc1ccc(-c2c(-c3ccc(C#N)c(F)c3)nc(N3CC[C@@H](N)C3)n(C)c2=O)cc1F [Example 27, 4-[2-((3R)-3-aminopyrrolidinyl)-5-(3-fluoro-4-methoxyphenyl)-1-methyl-6-oxohydropyrimidin-4-yl]-2-fluorobenzenecarbonitrile] | < 100 |
| COc1ccc(-c2c(-c3ccc(C#N)c(F)c3)nc(N3CC[C@H](N)C3)n(C)c2=O)cc1F [Example 29, 4-[2-((3S)-3-amino-pyrrolidin-1-yl)-5-(3-fluoro-4-methoxy-phenyl)-1-methyl-6-oxo-1,6-dihydro-pyrimidin-4-yl]-2-fluoro-benzonitrile] | < 100 |
| COc1ccc(-c2c(-c3ccc(C#N)c(F)c3)nc(N3CCC(C)(N)CC3)n(C)c2=O)cc1F [Example 32, 4-[2-(4-amino-4-methyl-piperidin-1-yl)-5-(3-fluoro-4-methoxy-phenyl)-1-methyl-6-oxo-1,6-dihydro-pyrimidin-4-yl]-2-fluoro-benzonitrile] | < 100 |
| Cn1c(N2CCC(N)CC2)nc(-c2ccc(C#N)cc2)c(-c2cnn(CC(F)(F)F)c2)c1=O [Example 36, 4-{2-(4-amino-piperidin-1-yl)-1-methyl-6-oxo-5-[1-(2,2,2-trifluoro-ethyl)-1H-pyrazol-4-yl]-1,6-dihydro-pyrimidin-4-yl}-benzonitrile] | < 100 |
| Cn1cc2cc(-c3c(-c4ccc(C#N)c(F)c4)nc(N4CCC(N)CC4)n(C)c3=O)ccc2n1 [Example 37, 4-[2-(4-aminopiperidyl)-1-methyl-5-(2-methyl(2H-indazol-5-yl))-6-oxohydropyrimidin-4-yl]-2-fluorobenzenecarbonitrile] | < 100 |
| COc1c(F)cc(-c2c(-c3ccc(C#N)cc3)nc(N3CCC(N)CC3)n(C)c2=O)cc1F [Example 38, 4-[2-(4-aminopiperidyl)-5-(3,5-difluoro-4-methoxyphenyl)-1-methyl-6-oxohydropyrimidin-4-yl]benzenecarbonitrile] | < 100 |
| Cn1c(N2CCC(N)CC2)nc(-c2ccc(C#N)c(F)c2)c(-c2ccc(C(=O)O)cc2)c1=O [Example 39, 4-[2-(4-aminopiperidyl)-6-(4-cyano-3-fluorophenyl)-3-methyl-4-oxo-3-hydropyrimidin-5-yl]benzoic acid] | 100 to 1000 |
| CNC(=O)c1ccc(-c2c(-c3ccc(C#N)cc3)nc(N3CCC(N)CC3)n(C)c2=O)cc1F [Example 40, {4-[2-(4-aminopiperidyl)-6-(4-cyanophenyl)-3-methyl-4-oxo(3-hydropyrimidin-5-yl)]-2-fluorophenyl}-N-methylcarboxamide] | < 100 |
